# Results from patent US20170172955A1, “Treatment of Mixed Dyslipidemia” (priority 2015, published 2017).
# Columns and labels:
# [1] = tested on: STAM model of non-alcoholic steatohepatitis (NASH)
# Method: Telmisartan (Micardis®) was purchased from Boehringer Ingelheim GmbH (Germany) and dissolved in pure water.
# Telmisartan was administered at a dose of 10 mg/kg once daily.
# Measurement of whole blood and plasma biochemistry: Eight-hour fasting blood samples were collected from facial vein at 3 days prior to termination.
# Eight-hour fasting blood glucose was measured in whole blood using Life Check (EIDIA Co. Ltd., Japan). For plasma biochemistry, eight-hour fasting blood was collected in polypropylene tubes with anticoagulant (Novo-Heparin, Mochida Pharmaceutical, Japan) and centrifuged at 1,000×g for 15 minutes at 4° C. The supernatant was collected and stored at −80° C. until use. Plasma insulin levels were quantified by Ultra Sensitive Mouse Insulin ELISA kit (Morinaga Institute of Biological Science, Inc., Japan).
# On the day of termination, non-fasting blood glucose was measured in whole blood using Life Check. For plasma biochemistry, non-fasting blood was collected in polypropylene tubes with anticoagulant (Novo-Heparin) and centrifuged at 1,000×g for 15 minutes at 4° C. The supernatant was collected and stored at −80° C. until use. Plasma ALT, AST, ALP, GGT, BUN, creatinine and total bilirubin levels were measured by FUJI DRI-CHEM 7000 (Fujifilm Corporation, Japan). Plasma ketone body levels were quantified by EnzyChrom™ Ketone Body Assay Kit (BioAssay Systems, USA). […]
# Histological analyses: For HE staining, sections were cut from paraffin blocks of liver tissue prefixed in Bouin's solution and stained with Lillie-Mayer's Hematoxylin (Muto Pure Chemicals Co., Ltd., Japan) and eosin solution (Wako Pure Chemical Industries). […] To visualize collagen deposition, Bouin's fixed liver sections were stained using picro-Sirius red solution (Waldeck, Germany). […]
# Statistical analyses were performed using Bonferroni Multiple Comparison Test on GraphPad Prism 6 (GraphPad Software Inc., USA). […] Results were expressed as mean±SD.
# The viability, clinical signs and behavior were monitored daily. Body weight was recorded before the treatment. […] The animals were sacrificed by exsanguination through direct cardiac puncture under isoflurane anesthesia (Pfizer Inc.) at 9 weeks of age.
# plasma fibrinogen = assay: Fibrinogen levels in rats (electro immunoassay); assay type: in vivo, rat; conditions: male Sprague-Dawley rats, 100 mg/kg/day oral, 14 days
# Method: Fifty-Six male Sprague-Dawley rats were obtained from Charles River Laboratories. All animals were allowed normal rat chow (Ralston-Purina) and water ad libitum in temperature-controlled rooms, under a 12-hour light, 12-hour dark cycle beginning with lights on at 6 AM. Rats were distributed to 7 groups of 8 rats per group. […] Control animals received vehicle alone. […] CI-719 is gemfibrozil. […] The plasma fibrinogen plasma levels were determined by electro immunoassay. […] Data are shown in FIG. 12 as mean±SEM of as percent of control fibrinogen levels. *p<0.001, two-sided unpaired t-test, compared to control.
# [2] = tested on: cholesterol and triglyceride synthesis; assay: Inhibition of plasma and hepatic cholesterol and triglyceride synthesis in apoB100/Lp(a) mice; assay type: in vivo, mouse
# Method: The apoB100/Lp(a) (cross of mice transgenic for human apoB100 and human apo(a)) mice) were obtained from Charles River. There were 8 animals per treatment group. […] Mice were acclimated for a minimum of 7 days to a reverse 12 hour light/12 hour dark cycle prior to administration of the first dose of test drug or vehicle. […] Test drugs and vehicle were given once daily. Thirty minutes after the eighth dose, 12.5 μCi [^14C] sodium acetate was administered. […] Individual plasma samples were acquired by placing whole blood samples into EDTA loaded centrifuge tubes and centrifuged. Plasma was transferred to new tubes and stored at −20° C. until assayed for [^14C] labeled cholesterol. Liver samples were flash frozen in liquid nitrogen and stored at −80° C. until assayed for [^14C] labeled cholesterol and triglycerides. Assay for plasma [^14C] labeled cholesterol. […] Additionally, 0.025 μCi […] (Perkin Elmer Life Sciences Inc. Boston, Mass.) was added to each sample, and to 2 or 3 spike controls in 7-mL scintillation vials, as an extraction internal standard. […] Samples were vortexed and saponified at 75° C. for 1 hour. After the samples cooled […] [^14C] labeled cholesterol was extracted with 2.5 mL petroleum ether per sample and shaken for 10 minutes, and then centrifuged for 10 minutes at 0° C. […] Each sample was then dissolved in 0.25 mL of 2 parts chloroform to 1 part per methanol by sonication. Five mL scintillant was added to each sample and the spike controls for direct [^3H] and [^14C] […] per minute (DPM) recording using a Packard 2500TR Tri-Carb Liquid Scintillation Analyzer. […] Assay for liver [^14C] labeled cholesterol and triglycerides. Frozen liver samples were kept on dry ice during sample weighing procedures and assay preparations. Each sample was homogenized in a solution of ice-cold methanol;0.5 N acetic acid. […] Samples were then vortexed and centrifuged for 20 minutes at 3000 rpm at room temperature to separate the phases. The lower chloroform layer was transferred to new vials. The remaining upper aqueous phase was extracted in like manner with 15 mL chloroform 2 more times. […] The aqueous phase was discarded and the chloroform phase was washed 2 times in like manner with 15 mL 1 part methanol to 1 part water, discarding the aqueous phase. The chloroform samples were evaporated under nitrogen gas, and resuspended in 600 μL chloroform and 30 μL removed for scintillation counting. Sample volumes were adjusted for corrected percent recovery and a calculated volume to load based on total liver weight. Calculated volumes were spotted onto TLC plates and dried in an 80° C. oven. After the plates had cooled to room temperature, they were developed in 102 mL isooctane:diethyl ether:glacial acetic acid, 75:25:2, respectively. Plates were dried in an 80° C. oven and allowed to cool to room temperature, wrapped in plastic wrap, and exposed to the phosphorimager screen. Imagequant software was used to quantitate cholesterol and triglyceride bands.
# [3] = STAM mice, telmisartan 10 mg/kg PO QD, Day 18, 8 hours of fasting
# [4] = STAM mice, telmisartan 10 mg/kg PO QD, termination (Day 21)
# [5] = telmisartan 10 mg/kg PO QD, n = 7
# [6] = 3 mg/kg oral once daily, 8 doses
structure (smiles),measurement,setting,value
"CCCc1nc2c(C)cc(-c3nc4ccccc4n3C)cc2n1Cc1ccc(-c2ccccc2C(=O)O)cc1 [Telmisartan, reference compound]",Sirius Red positive area (mean ± SD),"[1]; STAM mice, telmisartan 10 mg/kg PO QD 6-9 wks",0.48 ± 0.09%
same,"NAFLD Activity score, NAS (mean ± SD)","[1]; STAM mice, telmisartan 10 mg/kg PO QD 6-9 wks, n = 7",2.6 ± 1.0
same,mortality during the treatment period,"[1]; STAM mice, telmisartan 10 mg/kg PO QD, before reaching Day 21",one mouse was found dead
same,Fasting blood glucose (mean ± SD),[1]; [3],742 ± 90 mg/dL
same,Plasma insulin (mean ± SD),[1]; [3],0.16 ± 0.04 ng/mL
same,Liver hydroxyl-proline (mean ± SD),[1]; [4],0.91 ± 0.21 μg/mg total protein
same,Liver triglyceride (mean ± SD),[1]; [4],31.7 ± 6.4 mg/g liver
same,Non-fasting blood glucose (mean ± SD),[1]; [4],856 ± 62 mg/dL
same,Plasma ALT (mean ± SD),[1]; [4],39 ± 15 U/L
same,Plasma AST (mean ± SD),[1]; [4],121 ± 38 U/L
same,Plasma ketone body (mean ± SD),[1]; [4],8.11 ± 3.27 mM
same,number of mice with Hepatocyte ballooning score 0 (None),[1]; [5],2
same,number of mice with Hepatocyte ballooning score 1 (Few balloon cells),[1]; [5],4
same,number of mice with Hepatocyte ballooning score 2 (Many cells/prominent ballooning),[1]; [5],1
same,number of mice with Lobular inflammation score 0 (No foci),[1]; [5],2
same,number of mice with Lobular inflammation score 1 (<2 foci/200x),[1]; [5],4
same,number of mice with Lobular inflammation score 2 (2-4 foci/200x),[1]; [5],1
same,number of mice with Steatosis score 0 (<5%),[1]; [5],1
same,number of mice with Steatosis score 1 (5-33%),[1]; [5],6
"Cc1ccc(C)c(OCCCC(C)(C)C(=O)O)c1 [Gemfibrozil, gemfibrozil, reference compound]",reduction in plasma fibrinogen levels compared with control,plasma fibrinogen,31%
"CCC(C)(C)C(=O)O[C@H]1C[C@@H](C)C=C2C=C[C@H](C)[C@H](CC[C@@H]3C[C@@H](O)CC(=O)O3)[C@H]21 [Simvastatin, simvastatin, reference compound]",inhibition of cholesterol synthesis as measured in plasma,[2]; 3 mg/kg,59%
same,lowering of cholesterol synthesis in liver tissue,[2]; 3 mg/kg,82%
same,"hepatic Cholesterol synthesis ([14C] sodium acetate), % Change from Vehicle",[2]; [6],−82 ± 8 %
same,"hepatic Triglycerides synthesis ([14C] sodium acetate), % Change from Vehicle",[2]; [6],4.0 ± 15%
